The nature of series [1]: Mouse tissue (liver, kidney, brain) pharmacokinetics after oral dose. Format: in vivo, male C57BL/6 mice. As to conditions: for TFV in brain tissue: brain, 1, 4 and 24 h after p.o. 10 mg/kg of prodrug, LLOQ 4.84 ng/mL (9.67 for 16h); for AUC(0-t) at 24 h: read-out: AUC0–24h; for concentration at 24 h / mean prodrug concentration in brain: 24 h; for mean prodrug concentration in brain: BLQ = below limit of quantitation. The procedure:
To compare the in vivo PK profiles to TXL and our previously reported drug lead 1 (Tables S19 and S26),[39] one group of male C57BL/6 mice were administered a single oral dose (p.o., 10 mg/kg) of 2a, 16g, or 16h (refer to Experimental Methods). Additionally, a separate group of mice were given a single intravenous dose (i.v., 3 mg/kg) of each prodrug to obtain plasma clearance (Cl), volume of distribution (Vd), and oral bioavailability data. Blood was sampled at 8 time points over 8 h (i.v.) or 24 h (p.o.) postdose, and plasma was isolated via centrifugation. Tissues (liver, kidney, and brain) were also harvested and homogenized at 3 time points over 24 h after oral dose. The concentrations of prodrug and TFV metabolite in each of these samples was then quantified using LC–MS/MS methodology.
Healthy male C57BL/6 mice (8–12 weeks old) weighing 20–30 g were procured from Global, India. Three mice were housed in each cage. Temperature and humidity were maintained at 22 ± 3 °C and 30–70%, respectively, and illumination was controlled to provide for 12 h light and 12 h dark cycles. Temperature and humidity were recorded by an autocontrolled data logger system. All animals were provided a laboratory rodent diet (Envigo Research private Ltd., Hyderabad). Reverse osmosis H2O treated with ultraviolet light was provided ad libitum.
Male mice were divided into two groups (n = 18 total, n = 9 per treatment group, n = 3 per time point, sparse sampling). One group was intravenously administered a solution of 2a, 16g, and 16h in 10% PEG-300, 10% Solutol HS-15, and 80% saline at 3 mg/kg with a dosing volume of 5 mL/kg. The second group was administered a solution of 2a, 16g, and 16h in 10% EtOH and 90% olive oil at 10 mg/kg via oral gavage with a dosing volume of 10 mL/kg.
Blood samples (approximately 60 μL) were collected from retro-orbital plexus under light isoflurane anesthesia such that the samples were obtained predose, as well as at eight time points post dose: 0.1, 0.25, 0.5, 1, 2, 4, 6, and 8 (i.v.) and 0.25, 0.5, 1, 2, 4, 8, 12, and 24 h (p.o.). Immediately after blood collection, plasma samples were harvested by centrifugation at 4000 rpm and 4 °C for 10 min and stored at −70 °C until LC–MS/MS analysis. Following blood collection from p.o. group, liver, kidney, and brain samples were collected (n = 3 per treatment group per time point) at 1, 4, and 24 h post dose. After isolation, tissue samples were rinsed three times with ice-cold saline and dried with blotting paper. Next, the tissue samples were homogenized using ice-cold PBS (pH = 7.4), and the resulting homogenates were stored below −70 °C until LC-MS/MS analysis. The total homogenate volume was 3 times the brain weight and 5 times the liver and kidney weight.
Areas under the concentration–time curves (AUC0–8h and AUC0–24h) were calculated via the linear trapezoidal rule[65] using GraphPad Prism v9. Furthermore, terminal elimination rate constants k were determined using linear regression (slope = −k) of the terminal portion of semilog-transformed concentration–time curves (Figures S44, S45, S47, S48, S50, and S51).

Series [2] deals with HEK293T cells. The series can be described thus: Cellular cytotoxicity (cell viability, CellTiter 96 or resazurin). The following applies: HEK293T cells, 48 h, compounds formulated with HSA (5:1).
Description: (§1) Second, HIV IC50 and cellular CC50 were determined with a pseudoviral, whole (HEK293T) cell, nonreplicative HIV assay, using the HIV-1 subtype C strain MJ4 (refer to Experimental Methods). To account for the unique amphiphilic properties of TXL and the novel HTP-based prodrugs, all compounds were formulated in a human serum albumin (HSA) solution (5:1 drug:protein).
(§2) Assessment of cytotoxicity and antiviral activity of all final compounds in vitro was conducted according to previously reported procedures.[39] In summary, human embryonic kidney (HEK293T) cells maintained in high glucose (25 mM), Dulbecco’s modified Eagle’s medium (DMEM) supplemented with fetal bovine serum (10%), sodium pyruvate (1 mM), L-glutamine (2 mM), HEPES (25 mM), and gentamicin (50 μg/mL) were used for determinations. The cells were maintained in an incubator at 37 °C under 5% CO2 in a humidified atmosphere. For both cytotoxicity and antiviral screening, all compounds were evaluated in duplicate in at least two independent experiments. All final compounds were formulated with human serum albumin (HSA, 5:1 compound to HSA molar ratio) and subsequently diluted with complete DMEM to 200 μM. Fifty microliters of test compound serial dilutions (3-fold) were prepared in 96-well culture plates, after which 50 μL of HEK293T cells (2 × 10^4 cells/well) was added. […] Cytotoxicity was then assessed by quantifying cell viability using the CellTiter 96 Aqueous One Solution Cell Proliferation Assay (Promega, Madison, WI) or resazurin sodium salt (cat# R7017, Merck, Darmstadt, Germany).[61] […] Antiviral activity was then assessed using a single-cycle, nonreplicating, envelope deleted HIV pseudoviral in vitro assay.[62],[63] The assay relies on the introduction of the firefly luciferase gene into HEK293T cells through infection with HIV-like viral particles, containing Reverse Transcriptase (RT) and Integrase (IN) from the HIV-1 subtype C strain MJ4.[64] The expression of the luciferase in the cells is directly proportional to the level of infection by the HIV-like viral particles and can be used to assess the inhibition of HIV-1 RT and IN. To evaluate anti-HIV activity, 3-fold serial dilutions of all final compounds were prepared in 50 μL over the noncytotoxic concentration range (as determined from the cytotoxicity screens described above) in 96-well culture plates. HEK293T cells (2 × 10^4 cells/well) and HIV-like viral particles, standardized to produce a luminescence signal of 1 × 10^6 relative light units (RLUs) in the growth medium only control, were combined, and 50 μL was added to the wells containing serially diluted test compounds. […] The expression of luciferase was subsequently quantified by adding 100 μL of the Bright-Glo Luciferase Assay substrate (Promega, Madison, WI) to each well of the 96-well plates. After incubation at rt for 3 min, luminescence was quantified on the GloMax Explorer Multimode Microplate Reader (Promega, Madison, WI).
The subject of series [3] is HepaRG cells. Put plainly: HepaRG cellular metabolic stability. As to conditions: for HepaRG t1/2: after 3 h loading at 20 μM, 37 °C.
Excerpt: Naturally, due the metabolic complexity of HepaRG cells, we specifically analyzed prodrug cellular uptake and stability, as represented by Cmax and intrinsic clearance (Clint,u) accordingly (Figure 7 and Table 9).
The HepaRG cell line (HPRGC10, Thermo Fisher Scientific) was used to evaluate the cellular permeability and metabolic stability for select final compounds in vitro. The cells were initially thawed with working media composed of HepaRG Thaw, Plate, & General Purpose Medium Supplement (HPRG670), Williams Medium E (100 mL), and GlutaMax (1 mL), all purchased from Thermo Fisher Scientific. […] After the thawing medium was aspirated from each well, the cells were cultured for an additional 6 days with working media consisting of HepaRG Maintenance/Metabolism Medium Supplement (HPRG720), Williams Medium E (500 mL), and GlutaMax (1 mL), all purchased from Thermo Fisher Scientific. Upon completing the 7-day culture period, HepaRG cells were plated in enough wells to allow for duplicate analysis of prodrugs in two independent cellular uptake or metabolic stability experiments. All studied compounds were formulated with human serum albumin (HSA, 5:1 compound to HSA molar ratio) and subsequently diluted to a 20 μM final concentration with assay medium composed of serum-free INVITROGRO HI Medium and TORPEDO Antibiotic Mix purchased from BioIVT. For cellular uptake determinations, the maintenance/metabolism medium was first aspirated from each well, and then the plated cells were spiked with 1.0 mL of test compound stock solution. Subsequently, the plate was incubated at 37 °C under 5% CO2 environment over the desired time course (seven data points/compound). Blank wells not treated with prodrug were included in assay runs as controls and initial time points (0 min). At each time point, the test compound solution was removed from the appropriate wells, and the plated cells were washed with 1.0 mL of DPBS twice. The HepaRG cells were then extracted with 500 μL of cold ISTD solution (1 μM 7-ethoxy-d5-coumarin in 70/30 MeOH/H2O), and the quenched aliquots were centrifuged at 15,000 g for 10 min at 4 °C. […] After obtaining prodrug Cmax and Tmax values from the cellular uptake assay, HepaRG metabolic stability was then assessed. Following the initial 7-day culture procedure, the maintenance/metabolism medium was aspirated from each well, and the plated cells were spiked with 1.0 mL of test compound stock solution. […] The test compound solution was then removed from each well and replaced with untreated dilution medium (i.e., serum-free INVITROGRO HI Medium and TORPEDO Antibiotic Mix), initializing the stability determination. The HepaRG plate was once more incubated at 37 °C under 5% CO2 atmosphere over the desired time course (nine data points/compound), and sample preparation and analysis were handled in identical fashion to cellular uptake experiments.
Series [4] deals with HIV-1 subtype C strain MJ4. Put plainly: Single-cycle non-replicating HIV pseudoviral luciferase assay in HEK293T cells. As to conditions: Human immunodeficiency virus 1, HEK-293T, read-out: HIV IC50.
Description: as §1, §2
Where [5] appears, read: male, C57BL/6, mouse, brain, po, p.o. 10 mg/kg, read-out: mean prodrug concentration in brain.
Setting [6] is: male, C57BL/6, mouse, kidney, po, p.o. 10 mg/kg, read-out: mean prodrug concentration in kidney.
Setting [7] is: male, C57BL/6, mouse, liver, po, p.o. 10 mg/kg, read-out: mean prodrug concentration in liver.
The mark [8] stands for this setting: male, C57BL/6, mouse, po, brain, prodrug, p.o. 10 mg/kg.
Where [9] appears, read: male, C57BL/6, mouse, po, kidney, prodrug, p.o. 10 mg/kg.
The mark [10] stands for this setting: male, C57BL/6, mouse, po, liver, prodrug, p.o. 10 mg/kg.

The values that follow come from article PMC11513920, “Building Metabolically Stable and Potent Anti-HIV Thioether-Lipid Analogues of Tenofovir Exalidex: A thorough Pharmacological Analysis” (Journal of Medicinal Chemistry, 2024).

Like-named read-outs stand apart in the source and are kept apart here.

Usually Cmax stands for the maximum level reached in the sampled fluid or tissue. As usually defined, the Tmax is the time at which the peak concentration occurs. One may read the CC50 as the concentration giving 50% cytotoxicity. A low value points to greater toxicity to the cells. In the case of `CCCCCCCCCCCCCCCCSCCCOP(=O)(O)CO[C@H](C)Cn1cnc2c(N)ncnc21.N` [2a], in series [1], the “TFV in brain tissue” value is on record as “BLQ”. Besides, in series [1] (setting [5]), the concentration at 1 h was determined as 43.8 ng/mL and the concentration at 4 h amounted to 2.19 ng/mL. In series [1] (setting [6]), the concentration at 1 h was 581 ng/mL, the concentration at 4 h was 385 ng/mL and the concentration at 24 h is 44.4 ng/mL. Also, in series [1] (setting [7]), the concentration at 1 h came out at 1250 ng/mL, the concentration at 4 h is 395 ng/mL and the concentration at 24 h was 3.95 ng/mL. Moreover, in series [1] (setting [8]), the peak concentration (Cmax) at 24 h was 43.8 ng/mL, the time to peak (Tmax) stood at 1 h and the AUC(0-t) at 24 h was 69 ng·h/mL. For the same compound, in series [1] (setting [9]), the Cmax at 24 h stood at 581 ng/mL, the Tmax came to 1 h and the AUC(0-t) at 24 h was 5740 ng·h/mL. In series [1] (setting [10]), the Cmax at 24 h stood at 1250 ng/mL, the Tmax is 1 h and the AUC(0-t) at 24 h is 6450 ng·h/mL. In addition, in series [1] (p.o. 10 mg/kg), the “mean prodrug concentration in brain” value is reported as “BLQ”. In series [2], this compound displayed a CC50 of 49.8 ± 2.9 µM.
Usually IC50 stands for the midpoint of a concentration-inhibition curve. As to `C[C@H](Cn1cnc2c(N)ncnc21)OCP(=O)(O)OCCCSCCCCCCCCCCCCc1ccc(F)cc1.N` [16g], in series [1], the “TFV in brain tissue” value is on record as “BLQ”. In series [1] (setting [5]), the concentration at 1 h amounted to 3.24 ng/mL and the concentration at 4 h amounted to 5.74 ng/mL. In series [1] (setting [6]), the concentration at 1 h is 310 ng/mL, the concentration at 4 h turned out to be 602 ng/mL and the concentration at 24 h was found to be 25.4 ng/mL. In series [1] (setting [7]), the concentration at 1 h worked out at 5330 ng/mL, the concentration at 4 h came to 4810 ng/mL and the concentration at 24 h was 24.8 ng/mL. In addition, in series [1] (setting [8]), the Cmax at 24 h is 5.74 ng/mL and the AUC(0-t) at 24 h was 13.5 ng·h/mL. In series [1] (setting [9]), the maximum concentration (Cmax) at 24 h was 602 ng/mL and the AUC(0-t) at 24 h came to 7650 ng·h/mL. In series [1] (setting [10]), the peak concentration (Cmax) at 24 h stood at 5330 ng/mL, the time of peak concentration (Tmax) worked out at 1 h and the AUC(0-t) at 24 h came out at 63600 ng·h/mL. Also, the “mean prodrug concentration in brain” value in series [1] (p.o. 10 mg/kg) is reported as “BLQ”. Further, the “HepaRG t1/2” value in series [3] was 0.778 ± 0.005 h. In addition, the 50% inhibitory concentration (IC50) in series [4] was 0.008 to 0.012 µM.
As to `C[C@H](Cn1cnc2c(N)ncnc21)OCP(=O)(O)OCCCSCCCCCCCCCCCCC1CCCCC1.N` [16h], in series [1], the “TFV in brain tissue” value is listed as “BLQ”. In series [1] (setting [5]), the concentration at 1 h is 16.1 ng/mL and the concentration at 4 h stood at 8.39 ng/mL. Moreover, in series [1] (setting [6]), the concentration at 1 h is 279 ng/mL, the concentration at 4 h stood at 795 ng/mL and the concentration at 24 h amounted to 123 ng/mL. In series [1] (setting [7]), the concentration at 1 h was found to be 1540 ng/mL, the concentration at 4 h came to 2150 ng/mL and the concentration at 24 h came out at 32.4 ng/mL. In series [1] (setting [8]), the Cmax at 24 h was found to be 16.2 ng/mL, the time of peak concentration (Tmax) at 24 h is 1 h and the AUC(0-t) at 24 h was 36.8 ng·h/mL. Further, in series [1] (setting [9]), the Cmax at 24 h came to 795 ng/mL and the AUC(0-t) at 24 h worked out at 10800 ng·h/mL. Further, in series [1] (setting [10]), the peak concentration (Cmax) at 24 h worked out at 2150 ng/mL and the AUC(0-t) at 24 h is 27300 ng·h/mL. The “mean prodrug concentration in brain” value in series [1] (p.o. 10 mg/kg) is given as “BLQ”. For the same compound, the “HepaRG t1/2” value in series [3] worked out at 1.18 ± 0.0067 h. Further, the “HepaRG Clint,u” value in series [3] (calculated from cellular t1/2) was 17.8 μL/min/million cells. The same compound returned a CC50 in series [2] of 47.5 ± 8.7 µM. Moreover, in series [4], the IC50 was in the range of 0.008 to 0.012 µM.
